Article PMC9475448, “What a difference a methylene makes: replacing Glu with Asp or Aad in the Lys-urea-Glu pharmacophore of PSMA-targeting radioligands to reduce kidney and salivary gland uptake” (Theranostics, 2022)

Tested on: LNCaP tumor-bearing mice
Assay: Ex vivo biodistribution of 177Lu-labeled ligands in LNCaP tumor-bearing NRG mice
[1] = 1 h post-injection, listed as [177Lu]Lu-PSMA-617
[2] = 4 h post-injection, listed as [177Lu]Lu-PSMA-617

## [^177Lu]Lu-PSMA-617
1 h post-injection
  Adrenal glands uptake: 3.025 ± 0.939 %IA/g
  Blood uptake: 0.750 ± 0.119 %IA/g
  Blood:Salivary gland uptake ratio: < 1.0
  Bone uptake: 0.118 ± 0.026 %IA/g
  Brain uptake: 0.028 ± 0.007 %IA/g
  Fat uptake: 0.327 ± 0.069 %IA/g
  Heart uptake: 0.294 ± 0.045 %IA/g
  Intestines uptake: 0.275 ± 0.032 %IA/g
  Kidneys uptake: 79.7±11.7 %IA/g
  Lacrimal glands uptake: 0.068 ± 0.022 %IA/g
  Liver uptake: 0.224 ± 0.030 %IA/g
  Lungs uptake: 1.377 ± 0.152 %IA/g
  Muscle uptake: 0.177 ± 0.032 %IA/g
  Pancreas uptake: 0.387 ± 0.074 %IA/g
  Salivary glands uptake: 1.78±0.38 %IA/g
  Spleen uptake: 3.666 ± 1.342 %IA/g
  Stomach uptake: 0.130 ± 0.054 %IA/g
  Testes uptake: 0.433 ± 0.068 %IA/g
  Thyroid uptake: 0.556 ± 0.073 %IA/g
  Tumor uptake: 16.5±2.46 %IA/g
  Tumor:Blood uptake ratio: 22.5 ± 4.07
  Tumor:Kidney uptake ratio: 0.21 ± 0.04
  Tumor:Muscle uptake ratio: 94.3 ± 12.8
  Tumor:Salivary gland uptake ratio: 9.81 ± 3.33
[1]
  Blood:Salivary gland uptake ratio: 0.44 ± 0.12
  Kidneys uptake: 79.67 ± 11.68 %IA/g
  Salivary glands uptake: 1.775 ± 0.381 %IA/g
  Tumor uptake: 16.48 ± 2.456 %IA/g
4 h post-injection
  Adrenal glands uptake: 0.469 ± 0.527 %IA/g
  Blood uptake: 0.031 ± 0.017 %IA/g
  Blood:Salivary gland uptake ratio: 0.20 ± 0.06
  Bone uptake: 0.017 ± 0.007 %IA/g
  Brain uptake: 0.011 ± 0.001 %IA/g
  Fat uptake: 0.028 ± 0.011 %IA/g
  Heart uptake: 0.026 ± 0.006 %IA/g
  Intestines uptake: 0.135 ± 0.042 %IA/g
  Kidneys uptake: 13.1±9.60 %IA/g
  Lacrimal glands uptake: 0.079 ± 0.056 %IA/g
  Liver uptake: 0.056 ± 0.012 %IA/g
  Lungs uptake: 0.123 ± 0.052 %IA/g
  Muscle uptake: 0.020 ± 0.004 %IA/g
  Pancreas uptake: 0.031 ± 0.012 %IA/g
  Salivary glands uptake: 0.14±0.04 %IA/g
  Spleen uptake: 0.222 ± 0.117 %IA/g
  Stomach uptake: 0.029 ± 0.017 %IA/g
  Testes uptake: 0.055 ± 0.018 %IA/g
  Thyroid uptake: 0.065 ± 0.027 %IA/g
  Tumor uptake: 14.24 ± 1.804 %IA/g
  Tumor:Blood uptake ratio: 593 ± 338
  Tumor:Kidney uptake ratio: 1.58 ± 0.98
  Tumor:Muscle uptake ratio: 748 ± 180
  Tumor:Salivary gland uptake ratio: 105 ± 28.0
[2]
  Kidneys uptake: 13.06 ± 9.598 %IA/g
  Salivary glands uptake: 0.142 ± 0.039 %IA/g
24 h post-injection
  Adrenal glands uptake: 0.032 ± 0.010 %IA/g
  Blood uptake: 0.004 ± 0.001 %IA/g
  Blood:Salivary gland uptake ratio: 0.10 ± 0.02
  Bone uptake: 0.009 ± 0.005 %IA/g
  Brain uptake: 0.010 ± 0.002 %IA/g
  Fat uptake: 0.009 ± 0.008 %IA/g
  Heart uptake: 0.009 ± 0.003 %IA/g
  Intestines uptake: 0.059 ± 0.039 %IA/g
  Kidneys uptake: 0.658 ± 0.159 %IA/g
  Lacrimal glands uptake: 0.050 ± 0.024 %IA/g
  Liver uptake: 0.043 ± 0.027 %IA/g
  Lungs uptake: 0.028 ± 0.005 %IA/g
  Muscle uptake: 0.005 ± 0.001 %IA/g
  Pancreas uptake: 0.008 ± 0.002 %IA/g
  Salivary glands uptake: 0.018 ± 0.003 %IA/g
  Spleen uptake: 0.039 ± 0.007 %IA/g
  Stomach uptake: 0.044 ± 0.011 %IA/g
  Testes uptake: 0.018 ± 0.003 %IA/g
